Key:
[1] = system: mean arterial pressure and heart rate of anesthetized rats; assay: Systemic hemodynamic effects, intravenous, anesthetized rats (Example 9); assay type: in vivo, rat (male Wistar)
Procedure: Among other effects, lowering of the blood pressure inside the blood vessels is beneficial for the treatment of congestive heart failure by reducing the vascular resistance of the blood flow which substantially reduces the work load imposed on the heart. […] This study involved the use of male Wistar rats anaesthetized with thiopentone sodium ([…]®, 120 mg kg^-1 i.p.). The trachea was cannulated to facilitate breathing.

[2] = system: U44069-induced pulmonary hypertension; assay: Effects on pulmonary vascular hypertension in sheep in vivo (Example 16); conditions: FIG. 5
Description: Each sheep was monitored for measurement of pulmonary arterial pressure (PPA), left atrial pressure (PLA), systemic arterial pressure (PSA), cardiac output (CO), and heart rate (HR). Plasma samples were taken from the sheep subjects to measure drug levels within the blood throughout the experiment. The experiment began upon intravenously infusing a known pulmonary arterial hypertension inducer in a customary manner. The rate of inducement was adjusted to cause the pulmonary vascular resistance (PVR) to increase 3 to 4 times that of the initial baseline PVR. PVR is calculated as the difference between PPA and PLA, divided by the CO. After a stabilization period, a sample of a present prostaglandin compound was administered via a surgically prepared tracheotomy using a MEDICATOR® aerosol drug delivery system (Healthline Medical Inc., Baldwin Park, Calif.), or via intravenous infusion.

SMILES: CCCCC[C@H](O)CC[C@@H]1[C@H]2Cc3cccc(OCC(=O)O)c3C[C@H]2C[C@H]1O [Compound X]
- effective life of the fall in MAP ([1]; comparison of Compound 4 with Compound X (1 mg/kg i.v.)): 30 min
- fall in MAP ([1]; i.v., Compound X 1 mg/kg, Compound 4 1-10 mg/kg, others 3-30 mg/kg): similar, maximal fall in MAP to the highest dose of Compound 4
- PPA-PLA before administration (normalized) ([2]; 1 μg/kg aerosol over 15 minutes): about 11.25 cmH2 O
- PPA-PLA after administration (normalized) ([2]; 1 μg/kg aerosol, 10 minutes after termination): about 5 cmH2 O

— patent publication US6242482A, “Prostaglandin compounds and derivatives thereof, compositions containing the same and method of using the same for the treatment of congestive heart failure” (priority 2000, dated 2001)
